According to patent publication US20160082133A1, “CHEMICAL EXCHANGE SATURATION TRANSFER (CEST) BASED MRI USING REPORTER GENES AND SUBSTRATES AND METHODS THEREOF” (The Johns Hopkins University, priority 2013, published 2016):
Values joined by “and” are separate entries in the source; they are usually repeats but may differ in a detail not shown here. Equal values may be shown once.

Columns and labels:
[1] = CEST MRI of CDase substrates and products at 9.4 T; format: physicochemical; conditions: pH 7.4, 37° C.
Description: All MR images were acquired with a 9.4T Bruker Avance system equipped with a 15 mm sawtooth RF coil. A modified RARE sequence (TR=6.0 sec, effective TE=43.2 ms, RARE factor=16, slice thickness=0.7 mm, FOV=14×14 mm, matrix size=128×64, resolution=0.11×0.22 mm^2, and NA=2) including a magnetization transfer (MT) module (one CW pulse, B=[…] (150 Hz), 3 sec) was used to acquire CEST-weighted images from −6 ppm to 6 ppm (step=0.2 ppm) around the water resonance (0 ppm). The absolute water resonant frequency shift was measured using a Water Saturation Shift Reference (WASSR) (Kim, M. et al. Magnetic Resonance in Medicine 2009, 61, 1441) method modified (Liu, G. et al. Contrast Media Mol Imaging 2010, 5, 162) with Lorentzian analysis. […]
Data processing was performed using custom-written scripts in MATLAB (Mathworks, Waltham, Mass.). CEST spectra were calculated from the mean of an ROI placed over each sample after B0 correction of the contrast on a per voxel basis. The CEST signal was quantified using MTRasym at specific offsets of interest (i.e., &ω=+2 ppm for cytosine or +2.4 ppm for 5FC) using the definition: MTRasym=(S^−˜ω−S^+″ω)/S0, where and s[−˜ω, +Aω] is the water signal intensity in the presence of a saturation pulse at offsets ±Aω, and S0 is water signal intensity in the absence of a saturation pulse.

[2] = Quantification of exchange rates (QUESP, Bloch equation fitting); format: physicochemical; conditions: 11.7 T, pH 7.4, 37° C.; for kex, quantified exchange rates of imino and water protons: 5 ppm for 1-3, 6 ppm for dT
Protocol: Exchange rates were quantified with the saturation power dependent CEST approach (QUESP) and Bloch equation fitting (McMahon et al., Magn. Res. Med. 2006, 55, 836). For each sample, the MTRasym was measured at the imino resonance frequency for CEST saturation fields of 43, 85, 128, 170, 213, 255, 340, and 426 Hz while the saturation pulse duration was kept constant at 4000 ms. The Bloch equations were then fit numerically to these MTRasym values using MATLAB (Mathworks), and the exchange rates (kex, s^−1) were determined from the fits. Errors (95% confidence limits) were estimated using the F statistic.

[3] = In vitro CEST-MRI of thymidine analogues at 11.7 T; format: physicochemical; conditions: pH 7.4, 37° C.; for MTRasym (8.5 Hz) / MTRasym (170 Hz) / MTRasym (213 Hz): at 5 ppm for 20 nM agent (so in the source); for MTRasym (128 Hz): at 5 ppm for 20 mM agent
Protocol: All compounds were dissolved at a concentration of 20 mM in phosphate-buffered saline (PBS) (pH=7.4) and placed in microcapillaries, as described previously.^17 CESTMRI experiments were performed on a vertical 11.7 T scanner (Bruker Avance system) at 37° C. A modified RARE sequence (TR/TE=10 000/9.4 ms; RARE factor=16; 1 mm slice thickness; FOV=11×11 mm^2; matrix size=64×32; resolution=0.17×0.34 mm^2; and NA=2) including a magnetization transfer (MT) module ([…]) was used to acquire CEST-weighted images from −8 to +8 ppm with increments of 0.2 ppm around the water resonance, which was assigned to be at 0 ppm. Pixel-based B0 correction was used as described before using the same parameters as above except for TR=1500 ms and B1/tsat=21 Hz/500 ms, with a sweep range from −2 to +2 ppm (0.1 ppm steps). Data processing was performed using custom-written scripts in MATLAB (Mathworks). Mean CEST spectra were plotted from an ROI for each sample, after B0 correction. MTRasym=100×(S^−Aω−S^AωA/^‘−’0)/3 was computed at different offsets Aω.

293^HSV1-tk cells = assay: Cell viability assay (CellTiter-Blue); format: cell-based, human; conditions: 0.5 mg/ml
Protocol: Cell viability assay was performed using CellTiter-Blue® Cell Viability Assay (Promega), which provides a fluorometric method for estimating the number of viable cells present in 96 well plate. HEK293FT cells transduced with the HSV1-tk (293^HSV1-tk) were plated in 96 well-plate (10,000 cells/well). Cells were incubated for a periods of 4 hours and 24 hours in the presence of ganciclovir (GCV, 0.5 mg/ml in cell medium), compound 2 (0.5 mg/ml in cell medium) and medium (as control). CellTiter-Blue® Reagent was added (20 μl/well) and plate was incubated for 3 hours at 37° C. Finally, fluorescence 560/590 nm was recorded and values obtained from probe containing wells (GCV or 2, N=4) were normalized to values of non-treated cells (control wells) to determine the % of viable cells after the incubation period.

PKA = molecular target: T1, PKA (Mus musculus, UniProt P05132); assay: Phosphorylation assay with recombinant PKA read out by CEST MRI; format: biochemical; conditions: 1 mM peptide
T1 construct: purchased New England Biolabs
Protocol: (§1) CEST MRI experiments were performed on a vertical 11.7T Bruker Avance system. Approximately […] of each sample was loaded into a capillary tube and up to 20 samples were scanned at each session to minimize variability as described before (Liu G et al., High-throughput screening of chemical exchange saturation transfer MR contrast agents. Contrast Media Mol Imaging 2010; 5:162-17). […] To account for inhomogeneity of the B0 field, the absolute water resonant frequency shift was measured using a modified water saturation shift reference method (Kim M et al., Water saturation shift referencing (WASSR) for chemical exchange saturation transfer (CEST) experiments. Magn Reson Med 2009; 61:1441-1450), using the same parameters as in CEST imaging except pulse repetition time 1/4 1.5 s, saturation pulse 1/4 500 ms, B1 1/4 […], and a sweep range from −2 to +2 ppm (step 1/4 0.1 ppm). […] After B0 correction for each voxel using the water saturation shift reference data, mean CEST-spectra were calculated from a region of interest (ROI) for each sample. The MTR asymmetry was quantified as MTRasym 1/4 (S^−Δω−S^+Δω)/S^0 (S^−Δω and S^+Δω are the water peak differentials due to saturation at the target frequency +ω and its negative −ω, respectively. S^0 is the unsaturated signal). […]

[4] = CEST-MRI of LRRASLG and LRRApSLG peptides in PBS; format: physicochemical; conditions: 1 mM, PBS pH 7.4, 11.7T
Protocol: Peptides were synthesized by NeoBioSci (Cambridge, Mass.) and provided as lyophilized powder. All compounds were dissolved in 10 mM PBS (pH 1/4 7.4) at the indicated concentration.
as §1, with “sample.” for “sample. The MTR asymmetry was quantified as MTRasym 1/4 (S^−Δω−S^+Δω)/S^0 (S^−Δω and S^+Δω are the water peak differentials due to saturation at the target frequency +ω and its negative −ω, respectively. S^0 is the unsaturated signal).”

HEK293 = assay: CEST MRI of HEK293 cells expressing hPRM1 (lysate and encapsulated live cells); format: cell-based, Human
Protocol: CEST experiments were performed on an 11.7T Bruker Avance system, as previously described. A modified RARE (TR/TE=6000/9.4 ms), including a magnetization transfer module (B1=4.7 μT/4000 ms), was used to acquire CEST-weighted images. The absolute water resonant frequency shift was measured using a modified WASSR method, with the same parameters as in CEST imaging, except for TR=1.5 sec and a saturation pulse of B1=0.5 μT/250 ms, which was used for B0 correction for each voxel using MatLab. MTR asymmetry (MTRasym)=100×(S−Δω−S+Δω)/S0 was computed at different offsets, Δω. Human Embryonic Kidney cells (HEK293), were engineered to express the gene encoding to hPRM1 (NM_002761; 293^hPRM1). Non-expressing wild type cells (293^wt) were used as controls. The cells were lysed or encapsulated in alginate-based microcapsules using Ba^2+ ions as the gelating cation (Barnett, B. P., et al. Nat Protoc 6, 1142-1151 (2011)).

## O=c1[nH]cc(F)c(=O)[nH]1 [5FU, 5-fluorouracil]
[1]
  MTRasym (CEST contrast): only limited and non-frequency-specific MTRasym

## CC1(O)C(=O)NC(=O)N([C@H]2C[C@H](O)[C@@H](CO)O2)C1O (stereo partly shown) [Compound 3, thymidine glycol]
[2]
  kex of the imino proton: 3.7±0.2×10^3 s^−1 and 5.1±0.7×10^3 s^−1
  kex, quantified exchange rates of imino and water protons: 3.8 ± 0.2 ×10^3 s^−1
[3]
  MTRasym (8.5 Hz): 3%
  MTRasym (170 Hz): 11%
  MTRasym (213 Hz): 16%
  MTRasym (128 Hz): 7%

## O=c1[nH]c(=O)n([C@H]2C[C@H](O)[C@@H](CO)O2)cc1Cl [Compound 4, 5-chloro-2′-deoxyuridine]
[3]
  CEST contrast from the imino proton: No CEST contrast was observed

## Nc1nc(O)c2ncn(COC(CO)CO)c2n1 [GCV, ganciclovir, reference compound]
293^HSV1-tk cells; 4 and 24 hours
  toxic effect on 293^HSV1-tk cells: cytotoxic effect
293^HSV1-tk cells; 24 hour, 293^HSV1-tk
  cells killed: about 50%

## Cc1cn([C@H]2C[C@H](O)[C@@H](CO)O2)c(=O)[nH]c1=O [dT, Thymidine, reference compound]
[2]
  kex of the imino proton: 3.7±0.2×10^3 s^−1
  kex, quantified exchange rates of imino and water protons: 5.1 ± 0.7 ×10^3 s^−1
[3]
  MTRasym (8.5 Hz): 2%
  MTRasym (170 Hz): 10%
  MTRasym (213 Hz): 15%
  MTRasym (128 Hz): 5%

## O=c1cc[nH]c(=O)[nH]1 [uracil]
[1]
  MTRasym (CEST contrast): only limited and non-frequency-specific MTRasym

## LRRASLG
PKA; 4 mM ATP, 30° C.
  decrease in CEST contrast on incubation with recombinant PKA: > 50%
PKA; recombinant PKA
  time in which the majority of the signal difference is generated: ≤ 15 min
[4]
  CEST contrast of unphosphorylated versus phosphorylated peptide: significantly higher contrast

## hPRM1: arginine-rich protein human protamine-1 (NM_002761) expressed as CEST reporter (ARYRCCRSQSRSRYYRQRQRSRRRRRRSCQTRRRAMRCCRPRYRPRCRRH; UniProt P04553 2-51, looked up)
HEK293; alginate microcapsules, 1.3 ppm and 3.6 ppm offsets
  CEST contrast of encapsulated live cells compared to non-expressing wild type cells: higher
HEK293; cell lysate
  CEST contrast of 293^hPRM1 lysate compared to wild type lysate: significantly higher CEST contrast
